# What was measured:
# [1] = Plasma concentration in dogs after daily oral liquid dosing (Example 1); type: in vivo; details: dog plasma, individual canines, 0.75 mg/kg/day oral days 0-29; Day -1 (pre-dose)
# Description: Each dog in the treatment group is to receive by mouth a liquid formulation of isoxazoline. The dosage of 0.75 mg/kg is to be administered to the dogs on each of days 0-29.
# Dogs in the control group are not to receive isoxazoline or any other flea control treatment. Each dog in the treatment group is to be offered its daily ration (dry food) and the individual doses of liquid formulation are to be administered after the individual dog has eaten at least 25% of its total daily ration. After receiving the dose of isoxazoline, the dogs are to be allowed to continue eating. This mimics incorporating the isoxazoline in feed. Each dog in the treatment group and the control group is to be experimentally infested with 100 unfed adult fleas on test days 2, 5, 12, 20 and 35. Comb counts for live adult fleas are to be conducted on days 4, 7, 14, 21 and 37.
# [2] = Plasma levels in dogs given medicated daily feed at different dosage levels (Example 6); type: in vivo, dog; design: unit not given here
# Excerpt: Methods: A pool of dogs are to be preliminarily infested with ˜50 unfed adult R. sanguineus ticks in order to produce dogs that can suitably sustain a reliable infestation rate, defined as approximately 25% of attached ticks being live at the end of a 72-hour period. The 24 dogs with the highest live attached tick counts are to be selected for inclusion in the study. The 18 dogs with the highest live attached tick counts are to be randomly assigned to one of a control group and 2 treatment groups. The 6 dogs with the next highest live attached tick counts are to be assigned to a third treatment group.
# The dogs are to be housed individually during the study period and are to have ad libitum access to water.
# Each dog in a treatment group (test groups 2-4) is to receive a medicated daily feed from study days 0-49. The medicated daily feed is to be offered to the dogs for 1 hour on each of days 0-49 according to test groups listed in TABLE 7.
# Blood is to be drawn at 0, 1, 3, 6, 10, 24, 48, 96, 168, 240 and 336 hours after the initial dose of isoxazoline is administered.
smiles,measurement,setting,value
"O=C(CNC(=O)c1sc(C2=NO[C@@](c3cc(Cl)c(F)c(Cl)c3)(C(F)(F)F)C2)c2c1CCC2)NCC(F)F [Mivorilaner, 3-[(5S)-5-(3,5-dichloro-4-fluorophenyl)-5-(trifluoromethyl)-4,5-dihydroisoxazol-3-yl]-N-[2-[(2,2-difluoroethyl)amino]-2-oxoethyl]-5,6-dihydro-4H-cyclopenta[c]thiophene-1-carboxamide]",Mivorilaner Concentration,[1],BLQ
same,average plasma concentration of isoxazoline,"[2]; Group 2 - 106 mg/kg feed (anticipated 1 mg/kg daily), 1 hr",49.98
same,average plasma concentration of isoxazoline,"[2]; Group 2 - 106 mg/kg feed (anticipated 1 mg/kg daily), 3 hr",292.00
same,average plasma concentration of isoxazoline,"[2]; Group 2 - 106 mg/kg feed (anticipated 1 mg/kg daily), 6 hr",539.00
same,average plasma concentration of isoxazoline,"[2]; Group 2 - 106 mg/kg feed (anticipated 1 mg/kg daily), 10 hr",505.40
same,average plasma concentration of isoxazoline,"[2]; Group 2 - 106 mg/kg feed (anticipated 1 mg/kg daily), 24 hr",458.60
same,average plasma concentration of isoxazoline,"[2]; Group 2 - 106 mg/kg feed (anticipated 1 mg/kg daily), 48 hr",771.83
same,average plasma concentration of isoxazoline,"[2]; Group 2 - 106 mg/kg feed (anticipated 1 mg/kg daily), 96 hr",1570.50
same,average plasma concentration of isoxazoline,"[2]; Group 2 - 106 mg/kg feed (anticipated 1 mg/kg daily), 168 hr",2156.67
same,average plasma concentration of isoxazoline,"[2]; Group 2 - 106 mg/kg feed (anticipated 1 mg/kg daily), 240 hr",3003.33
same,average plasma concentration of isoxazoline,"[2]; Group 2 - 106 mg/kg feed (anticipated 1 mg/kg daily), 336 hr",3290.00
same,average plasma concentration of isoxazoline,"[2]; Group 3 - 106 mg/kg feed (anticipated 1 mg/kg daily), 1 hr",40.41
same,average plasma concentration of isoxazoline,"[2]; Group 3 - 106 mg/kg feed (anticipated 1 mg/kg daily), 3 hr",264.83
same,average plasma concentration of isoxazoline,"[2]; Group 3 - 106 mg/kg feed (anticipated 1 mg/kg daily), 6 hr",467.50
same,average plasma concentration of isoxazoline,"[2]; Group 3 - 106 mg/kg feed (anticipated 1 mg/kg daily), 10 hr",419.17
same,average plasma concentration of isoxazoline,"[2]; Group 3 - 106 mg/kg feed (anticipated 1 mg/kg daily), 24 hr",435.17
same,average plasma concentration of isoxazoline,"[2]; Group 3 - 106 mg/kg feed (anticipated 1 mg/kg daily), 48 hr",781.83
same,average plasma concentration of isoxazoline,"[2]; Group 3 - 106 mg/kg feed (anticipated 1 mg/kg daily), 96 hr",1596.67
same,average plasma concentration of isoxazoline,"[2]; Group 3 - 106 mg/kg feed (anticipated 1 mg/kg daily), 168 hr",2406.67
same,average plasma concentration of isoxazoline,"[2]; Group 3 - 106 mg/kg feed (anticipated 1 mg/kg daily), 240 hr",3026.67
same,average plasma concentration of isoxazoline,"[2]; Group 3 - 106 mg/kg feed (anticipated 1 mg/kg daily), 336 hr",3516.67
same,average plasma concentration of isoxazoline,"[2]; Group 4 - 318 mg/kg feed (anticipated 3 mg/kg daily), 1 hr",143.75
same,average plasma concentration of isoxazoline,"[2]; Group 4 - 318 mg/kg feed (anticipated 3 mg/kg daily), 3 hr",846.50
same,average plasma concentration of isoxazoline,"[2]; Group 4 - 318 mg/kg feed (anticipated 3 mg/kg daily), 6 hr",1265.67
same,average plasma concentration of isoxazoline,"[2]; Group 4 - 318 mg/kg feed (anticipated 3 mg/kg daily), 10 hr",1198.17
same,average plasma concentration of isoxazoline,"[2]; Group 4 - 318 mg/kg feed (anticipated 3 mg/kg daily), 24 hr",1021.17
same,average plasma concentration of isoxazoline,"[2]; Group 4 - 318 mg/kg feed (anticipated 3 mg/kg daily), 48 hr",2011.67
same,average plasma concentration of isoxazoline,"[2]; Group 4 - 318 mg/kg feed (anticipated 3 mg/kg daily), 96 hr",3928.33
same,average plasma concentration of isoxazoline,"[2]; Group 4 - 318 mg/kg feed (anticipated 3 mg/kg daily), 168 hr",6461.67
same,average plasma concentration of isoxazoline,"[2]; Group 4 - 318 mg/kg feed (anticipated 3 mg/kg daily), 240 hr",8696.67
same,average plasma concentration of isoxazoline,"[2]; Group 4 - 318 mg/kg feed (anticipated 3 mg/kg daily), 336 hr",11600.00

# — patent US20230414569A1, “ORAL CANINE FEED AND METHODS FOR CONTROLLING FLEA INFESTATIONS IN A CANINE” (In the Bowl Animal Health, Inc., priority 2021, published 2023)
